The text below walks through data of PubChem BioAssay (NCI).

SMILES strings stand for the structures.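 Each compound was tested at five concentrations against cells in 96-well plates for 48 hours. Definition used: TGI = concentration required for complete inhibition of growth.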 A value given as a limit tells only on which side of the number the result lay.

Some test systems named below: 786-0 renal; A549 NSCLC; COLO 205 colon; DU-145 prostate; HCC-2998 colon; HS 578T breast; MALME-3M melanoma; MCF7 breast; MDA-MB-435; MOLT-4 leukemia; NCI-H522 lung; PC-3 prostate; RPMI-8226 leukemia; SK-MEL-28 melanoma; SNB-75 CNS; SW-620 colon; UACC-62 melanoma; OVCAR-4 ovarian; SN12C renal.
Assay in all cases: inhibition of tumour cell growth, NCI panel, 48 h

For `Cc1ccc(NC(=O)CC(=O)n2nc(C)c(N=Nc3ccc(S(=O)(=O)CCOS(=O)(=O)O)cc3)c2C)cc1`, the TGI in the test on 786-0 renal, in the test on A549 NSCLC, in the test with COLO 205 colon, in the test on DU-145 prostate, in the test on HCC-2998 colon and with HS 578T breast was more than 100 µM in each case. In addition, the TGI in the test on MALME-3M melanoma, with MCF7 breast, with MDA-MB-435, in the test on MOLT-4 leukemia, in the test with NCI-H522 lung and in the test with PC-3 prostate was more than 100 µM in each case. Besides, the TGI with RPMI-8226 leukemia, in the test with SK-MEL-28 melanoma, in the test with SNB-75 CNS, with SW-620 colon and in the test on UACC-62 melanoma was more than 100 µM in each case.

In the case of `COc1cc2c(c(OC)c1OC)C(=O)[C@H]1OC(=O)N[C@@H]21`, the TGI in the test with 786-0 renal, in the test on A549 NSCLC, with COLO 205 colon, with DU-145 prostate, in the test on HCC-2998 colon and in the test on HS 578T breast was more than 100 µM throughout. Further, the TGI in the test with MCF7 breast, in the test with MDA-MB-435, in the test with MOLT-4 leukemia, in the test on OVCAR-4 ovarian, in the test with PC-3 prostate and in the test on RPMI-8226 leukemia was more than 100 µM throughout. Also, the TGI in the test with SK-MEL-28 melanoma, with SN12C renal, in the test with SNB-75 CNS, with SW-620 colon and in the test on UACC-62 melanoma was more than 100 µM throughout.

`O=C1C(N=Nc2ccc(-c3nc4ccccc4o3)cc2)NC(=S)N1c1ccccc1` (stereo unspecified): the TGI in the test on 786-0 renal, in the test on A549 NSCLC, in the test with COLO 205 colon, in the test on DU-145 prostate, in the test with HCC-2998 colon and in the test on HS 578T breast was more than 100 µM throughout. Also, the TGI in the test on MALME-3M melanoma, with MCF7 breast, in the test with MDA-MB-435, in the test on MOLT-4 leukemia, in the test with NCI-H522 lung and in the test on OVCAR-4 ovarian was more than 100 µM each time. Further, the TGI with PC-3 prostate, in the test on SK-MEL-28 melanoma, in the test on SN12C renal, in the test on SNB-75 CNS, with SW-620 colon and with UACC-62 melanoma was more than 100 µM each time.

`CN(C)Cc1cc(N=Nc2ccccc2Cl)cc(CN(C)C)c1O`: the TGI in the test on 786-0 renal, in the test with A549 NSCLC, with COLO 205 colon, in the test on DU-145 prostate, in the test with HCC-2998 colon and in the test on HS 578T breast was more than 100 µM each time. The TGI with MCF7 breast is more than 100 µM; with MDA-MB-435, more than 100 µM; in the test on MOLT-4 leukemia it was more than 100 µM; in the test with NCI-H522 lung, 28.8 µM; in the test on OVCAR-4 ovarian, more than 100 µM; in the test with PC-3 prostate, more than 100 µM. Besides, the TGI in the test on RPMI-8226 leukemia is more than 100 µM; in the test on SK-MEL-28 melanoma, 33.6 µM; in the test with SN12C renal, more than 100 µM; in the test with SNB-75 CNS it was more than 100 µM; in the test with SW-620 colon, more than 100 µM; with UACC-62 melanoma it was 64.1 µM.

`CN(/N=C/c1cccs1)c1ccc([N+](=O)[O-])cc1[N+](=O)[O-]`: the TGI in the test with 786-0 renal, in the test on A549 NSCLC, with COLO 205 colon, in the test with DU-145 prostate, in the test with HCC-2998 colon and in the test with HS 578T breast was more than 100 µM each time. The TGI in the test on MCF7 breast, in the test with MDA-MB-435, in the test with MOLT-4 leukemia, in the test on NCI-H522 lung, with OVCAR-4 ovarian and in the test on PC-3 prostate was more than 100 µM throughout. The TGI with RPMI-8226 leukemia, in the test with SK-MEL-28 melanoma, in the test on SN12C renal, in the test with SNB-75 CNS, with SW-620 colon and in the test with UACC-62 melanoma was more than 100 µM each time.

`N#Cc1c2c([nH]c(=O)c1C#N)CCCC2`: the TGI with 786-0 renal, in the test on A549 NSCLC, with COLO 205 colon, in the test on DU-145 prostate, in the test on HCC-2998 colon and with HS 578T breast was more than 100 µM in each case. Moreover, the TGI in the test with MALME-3M melanoma, in the test with MCF7 breast, with MDA-MB-435, in the test on MOLT-4 leukemia, in the test with PC-3 prostate and with SK-MEL-28 melanoma was more than 100 µM each time. Further, the TGI in the test with SN12C renal, with SNB-75 CNS, in the test with SW-620 colon and in the test on UACC-62 melanoma was more than 100 µM throughout.

As for `O=[N+]([O-])c1ccc(N=NN2CCCC2)cc1`, the TGI in the test on 786-0 renal is more than 100 µM; in the test with COLO 205 colon, more than 100 µM; in the test with DU-145 prostate it was more than 100 µM; with HCC-2998 colon, 20.6 µM; with HS 578T breast it was more than 100 µM; with MCF7 breast it was more than 100 µM. Further, the TGI in the test with MDA-MB-435, in the test with MOLT-4 leukemia, in the test with NCI-H522 lung, in the test on OVCAR-4 ovarian, with PC-3 prostate and in the test with RPMI-8226 leukemia was more than 100 µM each time. The TGI with SN12C renal, in the test on SNB-75 CNS, in the test with SW-620 colon and in the test with UACC-62 melanoma was more than 100 µM in each case.

In the case of `O=C1CCC[C@H]2O[C@@H](COCc3ccccc3)C[C@@H]12`, the TGI in the test with 786-0 renal, with A549 NSCLC, in the test on COLO 205 colon, with DU-145 prostate, in the test on HS 578T breast and in the test with MCF7 breast was more than 100 µM each time. The TGI in the test on MDA-MB-435, with MOLT-4 leukemia, in the test on OVCAR-4 ovarian, in the test with PC-3 prostate, in the test on RPMI-8226 leukemia and in the test on SK-MEL-28 melanoma was more than 100 µM throughout. For the same compound, the TGI with SN12C renal, in the test with SNB-75 CNS, in the test with SW-620 colon and in the test with UACC-62 melanoma was more than 100 µM each time.
